In US12441742B2, “Naphthyridine compounds as inhibitors of KRAS” (Incyte Corporation, priority 2021, dated 2025):
pIC50: −log10 of the molar value.

Legend:
KRAS G12D [1] = target: T1, KRAS G12D (Homo sapiens, UniProt P01116, G12D); assay: KRAS_G12D cellular pERK HTRF assay; assay type: cell-based; design: CRL-1997; host or cells: A427 or HPAF-II; settings: KRAS G12D cells (A427, HPAF-II), 2 hours; for pIC50: read-out: G12D_pERK (KRAS_G12D pERK assay IC50)
Description: MIA PaCa-2 (KRAS G12C; ATCC® CRL-1420), A427 (KRAS G12D; ATCC® HTB53), HPAF-II (KRAS G12D; ATCC® CRL-1997) and NCI-H838 (KRAS WT; ATCC® CRL-5844) cells are purchased from ATCC and maintained in RPMI 1640 media supplemented with 10% FBS (Gibco/Life Technologies). The cells are plated at 5000 cells per well (8 uL) into Greiner 384-well low volume, flat-bottom, tissue culture treated white plates and incubated overnight at 37° C., 5% CO2. The next morning, test compound stock solutions are diluted in media at 3x the final concentration, and 4 uL are added to the cells. The plate is mixed by gentle rotation for 30 seconds (250 rpm) at room temperature. The cells are incubated with the KRAS G12C and G12D compounds for 4 hours or 2 hours respectively at 37° C., 5% CO2.
4 uL of 4x lysis buffer with blocking reagent (1:25) (Cisbio) are added to each well and plates are rotated gently (300 rpm) for 30 minutes at room temperature. 4 uL per well of Cisbio anti Phospho-ERK 1/2 d2 is mixed with anti Phospho-ERK 1/2 Cryptate (1:1) are added to each well, mixed by rotation and incubated overnight in the dark at room temperature. Plates are read on the Pherastar plate reader at 665 nm and 620 nm wavelengths. IC50 determination is performed by fitting the curve of inhibitor percent inhibition versus the log of the inhibitor concentration using the GraphPad Prism 7 software.

KRAS G12V [2] = target: T2, KRAS G12V (Homo sapiens, UniProt P01116, G12V); assay: KRAS_G12V pERK assay; assay type: cell-based; settings: read-out: G12V_pERK (KRAS_G12V pERK assay IC50)
T2 sequence (P01116 1-188 isoform P01116-2 G12V): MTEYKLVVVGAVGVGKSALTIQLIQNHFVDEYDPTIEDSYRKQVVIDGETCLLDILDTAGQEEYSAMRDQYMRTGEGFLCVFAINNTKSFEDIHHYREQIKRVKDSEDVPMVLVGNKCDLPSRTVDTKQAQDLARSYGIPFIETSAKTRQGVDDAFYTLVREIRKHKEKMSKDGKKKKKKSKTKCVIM

KRAS G12V [3] = target: T2, KRAS G12V; assay: KRAS_G12V GDP-GTP exchange assay (bodipy-GDP/GppNHp, SOS1); assay type: biochemical; settings: bodipy loaded KRAS G12V 2.5 nM, 3 hours incubation after GppNHp-SOS1; read-out: G12V_exchange (KRAS_G12V exchange assay IC50)
Description: (§1) The inhibitor potency of the exemplified compounds was determined in a fluorescence based guanine nucleotide exchange assay, which measures the exchange of bodipy-GDP (fluorescently labeled GDP) for GppNHp (Non-hydrolyzable GTP analog) to generate the active state of KRAS in the presence of SOS1 (guanine nucleotide exchange factor). Inhibitors were serially diluted in DMSO and a volume of 0.1 μL was transferred to the wells of a black low volume 384-well plate. 5 μL/well volume of bodipy-loaded KRAS G12D diluted to 2.5 nM in assay buffer (25 mM Hepes pH 7.5, 50 mM NaCl, 10 mM MgCl2 and 0.01% Brij-35) was added to the plate and pre-incubated with inhibitor for 4 hours at ambient temperature. Appropriate controls (enzyme with no inhibitor or with a G12D inhibitor) were included on the plate. The exchange was initiated by the addition of a 5 μL/well volume containing 1 mM GppNHp and 300 nM SOS1 in assay buffer. The 10 μL/well reaction concentration of the bodipy-loaded KRAS G12D, GppNHp, and SOS1 were 2.5 nM, 500 uM, and 150 nM, respectively. The reaction plates were incubated at ambient temperature for 2 hours, a time estimated for complete GDP-GTP exchange in the absence of inhibitor. For the KRAS G12V mutant, similar guanine nucleotide exchange assays were used with 2.5 nM as final concentration for the bodipy loaded KRAS proteins and 3 hours incubation after adding GppNHp-SOS1 mixture. A cyclic peptide described to selectively bind G12D mutant (Sakamoto et al., BBRC 484.3 (2017), 605-611) or internal compounds with confirmed binding were used as positive controls in the assay plates. Fluorescence intensities were measured on a PheraStar plate reader instrument (BMG Labtech) with excitation at 485 nm and emission at 520 nm.
(§2) Either GraphPad prism or XLfit was used to analyze the data. The IC50 values were derived by fitting the data to a four parameter logistic equation producing a sigmoidal dose-response curve with a variable Hill coefficient. Prism equation: Y=Bottom+(Top−Bottom)/(1+10^((Log IC50−X)*Hill slope)); XLfit equation: Y=(A+((B−A)/(1+((X/C)^D)))) where X is the logarithm of inhibitor concentration and Y is the response.

KRAS G12D [4] = target: T1, KRAS G12D; assay: KRAS_G12D GDP-GTP exchange assay (bodipy-GDP/GppNHp, SOS1); assay type: biochemical; settings: bodipy-loaded KRAS G12D 2.5 nM, 4 hours pre-incubation, 2 hours exchange
Description: as §1, §2

T1 sequence (P01116 1-188 isoform P01116-2 G12D): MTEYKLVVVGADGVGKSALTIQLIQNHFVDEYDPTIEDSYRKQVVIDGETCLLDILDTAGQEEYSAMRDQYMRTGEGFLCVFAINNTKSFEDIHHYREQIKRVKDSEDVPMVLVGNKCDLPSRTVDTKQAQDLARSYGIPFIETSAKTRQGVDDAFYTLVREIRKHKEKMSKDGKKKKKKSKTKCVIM

Compound | pIC50 (KRAS G12D [1]) | pIC50 (KRAS G12V [2]) | pIC50 (KRAS G12V [3]) | G12D_exchange (KRAS_G12D exchange assay IC50) (KRAS G12D [4]) | G12D_pERK (KRAS_G12D pERK assay IC50) (KRAS G12D [1]) | pIC50 (KRAS G12D [4]; read-out: G12D_exchange (KRAS_G12D exchange assay IC50))
Cc1cc2c(OCC34CCCN3CCC4)nc3c(F)c(-c4cc(O)cc5ccccc45)ncc3c2n1[C@@H]1[C@@H]2CN[C@H]1C2 (relative stereo) [Example 4, 4-(1-((endo)-2-azabicyclo[2.1.1]hexan-5-yl)-6-fluoro-2-methyl-4-((tetrahydro-1H-pyrrolizin-7a(5H)-yl)methoxy)-1H-pyrrolo[3,2-c][1,6]naphthyridin-7-yl)naphthalen-2-ol] | 6.00 to 7.00 | 5.30 to 6.00 | ≥ 7.00 | † | – | –
COC(=O)CCc1cc2c(OC[C@@]34CCCN3C[C@H](F)C4)nc3c(F)c(-c4cc(O)cc5ccccc45)ncc3c2n1C1C2CNC1C2 (single isomer, unassigned) [Example 2a] | 5.30 to 6.00 | – | 6.00 to 7.00 | † | – | –
C[C@H](Oc1nc2c(F)c(-c3cccc4c3OCCC4)ncc2c2c1cc(-c1cn(C)nc1C(=O)N(C)C)n2[C@H]1[C@H]2CN[C@@H]1C2)[C@@H]1CCCN1C [Example 27, 4-(1-((1R,4R,5S)-2-azabicyclo[2.1.1]hexan-5-yl)-7-(chroman-8-yl)-6-fluoro-4-((S)-1-((S)-1-methylpyrrolidin-2-yl)ethoxy)-1H-pyrrolo[3,2-c][1,6]naphthyridin-2-yl)-N,N,1-trimethyl-1H-pyrazole-3-carboxamide] | 5.30 to 6.00 | 5.30 to 6.00 | ≥ 7.00 | † | – | –
COC(=O)N1CCC[C@@H]1c1cc2c(O[C@@H](C)CN3CCCC3)nc3c(F)c(-c4cccc5scnc45)ncc3c2n1[C@H]1[C@H]2CN[C@@H]1C2 [Example 25, methyl (R)-2-(7-(benzo[d]thiazol-4-yl)-1-((1R,4R,5S)-2-azabicyclo[2.1.1]hexan-5-yl)-6-fluoro-4-(((S)-1-(pyrrolidin-1-yl)propan-2-yl)oxy)-1H-pyrrolo[3,2-c][1,6]naphthyridin-2-yl)pyrrolidine-1-carboxylate] | – | 5.30 to 6.00 | 6.00 to 7.00 | † | † | –
COC(=O)CCc1cc2c(O[C@@H](C)[C@@H]3CCCN3C)nc3c(F)c(-c4cc(O)cc5ccccc45)ncc3c2n1C1C2CNC1C2 (single isomer, unassigned) [Example 1b] | – | 6.00 to 7.00 | ≥ 7.00 | † | – | –
COC(=O)CCc1cc2c(O[C@@H](C)[C@@H]3CCCN3C)nc3c(F)c(-c4cc(O)cc5ccccc45)ncc3c2n1C1C2CNC1C2 (single isomer, unassigned) [Example 1a] | – | 5.30 to 6.00 | ≥ 7.00 | † | † | –
C[C@H](Oc1nc2c(F)c(-c3cc(O)cc4ccccc34)ncc2c2c1nc(CCC(=O)N(C)C)n2C1C2CNC1C2)[C@@H]1CCCN1C (single isomer, unassigned) [Example 9a] | 5.30 to 6.00 | – | ≥ 7.00 | † | – | –
C[C@H](Oc1nc2c(F)c(-c3cccc4c3OCCC4)ncc2c2c1cc(C1CC[C@H]3COC(=O)N13)n2[C@H]1[C@H]2CN[C@@H]1C2)[C@@H]1CCCN1C (single isomer, unassigned) [Example 26b] | 5.30 to 6.00 | – | 6.00 to 7.00 | – | – | 6.00 to 7.00

Now from value to compound:

pIC50 (KRAS G12D [1]) | pIC50 (KRAS G12V [2]) | pIC50 (KRAS G12V [3]) | G12D_exchange (KRAS_G12D exchange assay IC50) (KRAS G12D [4]) | G12D_pERK (KRAS_G12D pERK assay IC50) (KRAS G12D [1]) | pIC50 (KRAS G12D [4]; read-out: G12D_exchange (KRAS_G12D exchange assay IC50)) | Compound
– | 6.00 to 7.00 | ≥ 7.00 | † | † | – | Cc1cc2c(O[C@@H](C)[C@@H]3CCCN3C)nc3c(F)c(-c4cc(O)cc5ccccc45)ncc3c2n1C1C2CNC1C2 (single isomer, unassigned) [Example 3a]
5.00 to 5.30 | – | 5.30 to 6.00 | † | – | – | CN(C)C(=O)CCc1nc2c(N3CC(N(C)C)C3)nc3cc(-c4cc(O)cc5ccccc45)c(CCC#N)nc3c2n1C1C2CNC1C2 (single isomer, unassigned) [Example 17b, 3-(1-((endo)-2-azabicyclo[2.1.1]hexan-5-yl)-8-(2-cyanoethyl)-4-(3-(dimethylamino)azetidin-1-yl)-7-(3-hydroxynaphthalen-1-yl)-1H-imidazo[4,5-c][1,5]naphthyridin-2-yl)-N,N-dimethylpropanamide]
5.30 to 6.00 | – | 6.00 to 7.00 | † | – | – | C[C@H](Oc1nc2c(F)c(N3CCCc4ccccc43)ncc2c2c1cc(CN1CCOC1=O)n2C1C2CNC1C2)[C@@H]1CCCN1C (single isomer, unassigned) [Example 7a]
– | 5.30 to 6.00 | ≥ 7.00 | † | † | – | C[C@H](Oc1nc2c(F)c(-c3cccc4c3OCCC4)ncc2c2c1cc(C1CC[C@H]3COC(=O)N13)n2[C@H]1[C@H]2CN[C@@H]1C2)[C@@H]1CCCN1C (single isomer, unassigned) [Example 26a]
6.00 to 7.00 | 5.00 to 5.30 | 6.00 to 7.00 | † | – | – | Cc1cc2c(O[C@@H](C)[C@@H]3CCCN3C)nc3c(F)c(-c4cc(O)cc5ccccc45)ncc3c2n1C1C2CNC1C2 (single isomer, unassigned) [Example 3b]
6.00 to 7.00 | 5.00 to 5.30 | ≥ 7.00 | † | – | – | COC(=O)CCc1cc2c(OC[C@@]34CCCN3C[C@H](F)C4)nc3c(F)c(-c4cc(O)cc5ccccc45)ncc3c2n1C1C2CNC1C2 (single isomer, unassigned) [Example 2b]
